From patent US10302632B2, “Macromolecular conjugates for visualization and separation of proteins and cells” (USTAV ORGANICKE CHEMIE A BIOCHEMIE AV CR, V.V.I., priority 2015, dated 2019)
Like-named read-outs stand apart in the source and are kept apart here. One block for each compound: values may come before it. Square brackets hold non-standard residues; d marks the D form. Peptide text beside a SMILES is read from it. Sta = CC(C)C[C@H](N)[C@@H](O)CC(=O)O; AEEA = NCCOCCOCC(=O)O

Tests used:
[1] = molecular target: T1, recombinant extracellular GCPII (Avi-GCPII) (Homo sapiens, UniProt Q04609); assay: Inhibition of GCPII hydrolytic activity (HPLC assay); type: biochemical
T1 construct: using a recombinant extracellular GCPII (Avi-GCPII; prepared according to [13]); Avi-tag; made in house
T1 sequence (Q04609 44-750 limits assumed): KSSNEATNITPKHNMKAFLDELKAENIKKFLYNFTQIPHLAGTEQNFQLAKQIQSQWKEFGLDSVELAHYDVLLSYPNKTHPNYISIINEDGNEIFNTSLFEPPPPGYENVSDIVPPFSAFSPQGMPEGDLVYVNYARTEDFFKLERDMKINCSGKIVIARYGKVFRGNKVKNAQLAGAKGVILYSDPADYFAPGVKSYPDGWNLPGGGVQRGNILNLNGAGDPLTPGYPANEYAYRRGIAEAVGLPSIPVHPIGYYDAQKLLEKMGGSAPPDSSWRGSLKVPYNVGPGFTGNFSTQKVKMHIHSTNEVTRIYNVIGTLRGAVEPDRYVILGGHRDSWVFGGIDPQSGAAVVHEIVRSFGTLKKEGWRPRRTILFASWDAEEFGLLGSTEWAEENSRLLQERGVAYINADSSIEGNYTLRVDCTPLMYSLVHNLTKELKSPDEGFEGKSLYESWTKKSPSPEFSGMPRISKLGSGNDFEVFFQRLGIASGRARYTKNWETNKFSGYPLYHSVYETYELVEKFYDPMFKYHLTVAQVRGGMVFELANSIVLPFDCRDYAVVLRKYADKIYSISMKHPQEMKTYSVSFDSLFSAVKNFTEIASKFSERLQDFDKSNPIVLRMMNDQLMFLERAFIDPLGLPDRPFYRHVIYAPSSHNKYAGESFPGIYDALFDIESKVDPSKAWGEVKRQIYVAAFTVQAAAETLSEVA
Procedure: Inhibitory potency of the inhibitors and polymeric conjugates on the hydrolytic activity of GCPII were tested by HPLC (described in [12]) using a recombinant extracellular GCPII (Avi-GCPII; prepared according to [13]). 210 pg of GCPII was mixed with a solution of 25 mM Bis-Tris propane, 150 mM NaCl, pH 7.4, 0.001% monododecyl(oktaethylenglycol)ether (Affymetrix, Octaethylene glycol monododecyl ether) and inhibitor solution to a total volume of 180 μl in a 96-well plate. Ten different inhibitor concentrations covering the whole inhibition curve were used. Reactions were first incubated 5 min at 37° C., then initiated by addition of 20 μl of pteroyl-bis(L-glutamate) to a final concentration of 400 nM and incubated at 37° C. for 20 min. […] Subsequently, 100 μl of the reaction mixture was analyzed in Agilent 1200 Infinity (Agilent Technologies, Inc.) on an RP-HPLC column Waters Acquity UPLC HSS T3 1.8 μm, 2.1×100 mm (Waters). HPLC analysis was performed isocratically in 2.7% acetonitrile and 97.3% 20 mM phosphate, pH 6.0. Substrate and product absorbance was measured at 281 nm. IC50 values were obtained from GraFit v.5.0.11 (Erithacus Software Ltd.).
Assuming competitive type of inhibition and using the values of KM and kcat, the Ki values for each inhibitor were determined from the Cheng-Prusoff equation [14].

HIV-1 protease = molecular target: T2, HIV-1 protease (Human immunodeficiency virus type 1 group M subtype B, UniProt P04585); assay: Inhibition of HIV-1 protease activity (spectrophotometric, chromogenic peptide substrate); type: biochemical; conditions: pH 4.7, substrate 16 μM
T2 construct: HIV-1 protease is a homodimeric aspartic protease
Procedure: The inhibition analyses were performed by spectrophotometric assay using the chromogenic peptide substrate KARVNle*NphEANle-NH2 as previously described.
The 1 ml reaction mixture contained 100 mM sodium acetate, 300 mM NaCl, pH 4.7, 6.8 pmol of HIV-1 protease and inhibitor in concentrations ranging between 2 and 130 nM. Substrate was added to a final concentration of 16 μM. Afterwards, the hydrolysis of substrate was followed as a decrease in absorbance at 305 nm using a UNICAM UV500 UV-VIS spectrophotometer (Thermo, Cambridge, Mass.). The data were analyzed using the equation for competitive inhibition according to Williams and Morrison. The mechanism of inhibition was determined by analysis of Lineweaver-Burk plots.

CA-IX = CA-IX (Homo sapiens, UniProt Q16790); assay: Affinity isolation (pull-down) of CA-IX from HT-29 cell lysate; type: binding; design: HT-29 cell line endogenously expressing CA-IX; endogenous in cells; host or cells: HT-29; conditions: conjugate on Streptavidin Sepharose, Western blot
Procedure: HT29 cells (cultured in 100 mm Petri dish) endogenously expressing CA-IX were lysed by sonication in a water bath (3 min/0° C.) in 450 μl of 50 mM Tris-HCl, 150 mM NaCl, pH 7.4, 1% Tween 20. Resulting cell lysate was further diluted in 20 mM Tris-HCl, 150 mM NaCl, 0.1% Tween 20, pH 7.4 (TBST) to a final protein concentration of 360 μg/ml. Meanwhile, Conjugate 3 and Conjugate 2 (negative control showing nonspecific binding) were pre-bound to 25 μl of Streptavidin Sepharose (200 nM solution in 200 μl of TBST, 1 hour, 6° C.), and after washing with 3×200 μl TBST, the resin was mixed with 200 μl of HT-29 cell lysate and incubated at 25° C. for 3 hours. The resin was then washed with 3×200 μl of TBST and subsequently, proteins were eluted with 25 μl of sample buffer for SDS-PAGE and with heating to 98° C. for 10 min.
To compare the effectiveness of CA-IX isolation with Conjugate 3, CA-IX was also isolated with M75 antibody. The experiment was performed analogously to experiment with polymeric conjugates: 1 μg of antibody was pre-bound to 20 μl of Protein G Sepharose the procedure followed as described above. […]
After isolation, samples were separated by SDS-PAGE electrophoresis and the gel was blotted to a nitrocellulose membrane (wet blot 100 V/1 hour). […] Chemiluminescence was recorded with ChemiDoc It™ 600 Imaging System (UVP).

[2] = read-out: Ki [nM] towards HIV-1 protease

- Ki [1]: 2030 pM
Compound: NCCOCCOCCOCCOCCOCCC(=O)N(CCCC[C@H](NC(=O)N[C@@H](CCC(=O)O)C(=O)O)C(=O)O)Cc1ccc(Br)cc1 [Compound A, (24S,28S)-19-(4-bromobenzyl)-24,28,30-tricarboxy-18,26-dioxo-3,6,9,12,15-pentaoxa-19,25,27-triazatriakontan-1-aminium 2,2,2-trifluoroacetate]

Compound: CC(C)[C@H](NC(=O)COCCOCCNC(=O)COCCOCCN)C(=O)N[C@@H](Cc1ccccc1)C[C@H](O)[C@H](Cc1ccccc1)NC(=O)OCc1cncs1 [compound C, (5S,6S,8S,11S)-5,8-dibenzyl-6-hydroxy-11-isopropyl-3,10,13,22-tetraoxo-1-(thiazol-5-yl)-2,15,18,24,27-pentaoxa-4,9,12,21-tetraazanonacosan-29-aminium 2,2,2-trifluoroacetate]
- Ki (HIV-1 protease; [2]): 0.012 ± 0.001 nM
- Ki (HIV-1 protease; read-out: Ki towards HIV-1 protease): 0.013 nM

Compound: CC(C)C[C@H](NC(=O)[C@H](C)NC(=O)C[C@H](O)[C@H](CC(C)C)NC(=O)[C@@H](NC(=O)[C@@H](NC(=O)COCCOCCNC(=O)COCCOCCN)C(C)C)C(C)C)[C@@H](O)CC(=O)O [compound D, (19S,22S,25S,26S,30S,33S)-33-((S)-2-carboxy-1-hydroxyethyl)-26-hydroxy-25-isobutyl-19,22-diisopropyl-30,35-dimethyl-8,17,20,23,28,31-hexaoxo-3,6,12,15-tetraoxa-9,18,21,24,29,32-hexaazahexatriacontan-1-aminium] (H-[AEEA][AEEA]VV[Sta]A[Sta]-OH)
- Ki (HIV-1 protease; [2]): 590 nM

Compound: poly(HPMA-co-Ma-β-Ala-ATTO488-co-Ma-β-Ala-NH-biotin) [Conjugate 2]
- affinity isolation / binding of CA-IX from lysate of HT-29 cells (CA-IX): no binding of CA-IX
- inhibition of the activity of GCPII [1]: did not inhibit the activity of GCPII
